Assay results: PubChem BioAssay (NCI)
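Values below derive from 48-hour exposures of cells grown in 96-well plates, with endpoints linearly interpolated between the two concentrations bracketing the appropriate inhibition level. At the GI50, growth is halved. TGI denotes the concentration required for complete inhibition of growth.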

Assays:
Assay in all cases: DTP human tumour cell line panel, 48 h
[1] = test system: SF-268 CNS
[2] = test system: OVCAR-3 ovarian
[3] = test system: A549 NSCLC
[4] = test system: HCC-2998 colon
[5] = test system: SN12C renal
[6] = test system: DMS 273 small cell lung
[7] = test system: LXFL 529 NSCLC
[8] = test system: KM20L2 colon
[9] = test system: DMS 114 small cell lung
[10] = test system: M19-MEL melanoma
[11] = test system: HOP-18 NSCLC
[12] = test system: XF 498 CNS
[13] = test system: DLD-1 colon
[14] = test system: SNB-78 CNS
[15] = test system: RXF-631 renal

Row | SMILES | TGI [1] | TGI [2] | TGI [3] | TGI [4] | TGI [5] | TGI [6] | TGI [7] | TGI [8] | TGI [9] | TGI [10] | TGI [11] | TGI [12] | TGI [13] | GI50 [2] | GI50 [5] | TGI [14] | TGI [15]
1 | Oc1ccc(-c2c3ccccc3c(-c3ccc(OCCBr)cc3)c3ccccc23)cc1 | > 100 µM | 33.7 µM | 69.1 µM | > 100 µM | 59.9 µM | – | – | – | – | – | – | – | – | – | – | – | –
2 | CC1=C2C(=O)C3[C@@H](CCC4=CC(=O)CC[C@@]43C)C2CC[C@]12O[C@@H]1C[C@H](C)CN[C@H]1[C@H]2C (stereo partly drawn) | > 100 µM | > 100 µM | > 100 µM | > 100 µM | > 100 µM | 42.8 µM | > 100 µM | > 100 µM | 28.9 µM | > 100 µM | > 100 µM | 94.4 µM | > 100 µM | – | – | – | –
3 | CC1CC(=O)N2CCCNC2=C1C#N (stereo not drawn) | > 100 µM | > 100 µM | > 100 µM | > 100 µM | > 100 µM | – | – | – | – | – | – | – | – | – | – | – | –
4 | COc1ccc(N2C(=O)CSC2c2cc3cc(Br)ccc3nc2Cl)cc1 (stereo not drawn) | > 50 µM | > 50 µM | > 50 µM | > 50 µM | > 50 µM | – | – | – | – | – | – | – | – | – | – | – | –
5 | Cn1c(=O)nc2n(CCO)ccnc-2c1=O | > 100 µM | > 100 µM | > 100 µM | > 100 µM | > 100 µM | – | – | – | – | – | – | – | – | – | – | – | –
6 | COC(=O)c1ccccc1/C=C1\Cc2cc3c(cc2C1=O)CCC3 | > 100 µM | > 100 µM | > 100 µM | > 100 µM | > 100 µM | – | – | – | – | – | – | – | – | – | – | – | –
7 | CC(C)=CCC[C@](C)(O)[C@H]1CC[C@]2(C)[C@@H]1[C@H](O)C[C@@H]1[C@@]3(C)CC[C@H](O[C@@H]4O[C@H](CO)[C@@H](O)[C@H](O)[C@H]4O)C(C)(C)[C@@H]3CC[C@]12C | 29.3 µM | 32 µM | 37.7 µM | 49.4 µM | 32.9 µM | – | – | – | – | – | – | – | – | – | – | – | –
8 | CCCCCCNC(=O)c1cc(C#Cc2cc(OC)ccc2OC)ccc1OC | > 100 µM | > 100 µM | > 100 µM | 6.25 µM | > 100 µM | – | – | – | – | – | – | – | – | > 100 µM | > 100 µM | – | –
9 | CC(Oc1ccccc1)C(=O)NN (stereo not drawn) | > 100 µM | > 100 µM | > 100 µM | > 100 µM | > 100 µM | – | – | – | – | – | – | – | – | – | – | – | –
10 | CCc1ccc(CCC(=O)O)nc1 | > 100 µM | > 100 µM | > 100 µM | > 100 µM | > 100 µM | – | – | – | – | – | – | – | – | – | – | – | –
11 | O=C(Nc1ccc(Cl)c(Cl)c1)C(=O)C(C1OC(=O)c2ccccc21)[N+](=O)[O-] (stereo not drawn) | > 100 µM | > 100 µM | > 100 µM | > 100 µM | > 100 µM | – | – | – | – | – | – | – | – | – | – | – | –
12 | CC1=NN(C(=O)CC(=O)Nc2ccccc2C)C(=O)C1N=Nc1ccc(S(=O)(=O)c2ccc(N=NC3C(=O)N(C(=O)CC(=O)Nc4ccccc4C)N=C3C)cc2)cc1 (stereo not drawn) | > 100 µM | > 100 µM | > 100 µM | > 100 µM | > 100 µM | – | – | – | – | – | – | – | – | – | – | – | –
13 | Cc1ccccc1N=Cc1ccc(N(CCC#N)S(=O)(=O)c2ccccc2)cc1 | > 100 µM | > 100 µM | > 100 µM | > 100 µM | > 100 µM | > 100 µM | > 100 µM | > 100 µM | > 100 µM | > 100 µM | > 100 µM | > 100 µM | > 100 µM | – | – | > 100 µM | > 100 µM
14 | Cc1nc2c(O)cccc2c(=O)[nH]1 | > 1000 µM | > 1000 µM | > 1000 µM | > 1000 µM | > 1000 µM | – | – | – | – | – | – | – | – | – | – | – | –
15 | CC1(C)CC(=O)C(CC(C(=O)C(=O)Nc2cc(C(F)(F)F)ccc2Cl)C(=O)c2ccco2)C(=O)C1 (stereo not drawn) | > 100 µM | > 100 µM | > 100 µM | > 100 µM | > 100 µM | – | – | – | – | – | – | – | – | – | – | – | –
16 | Cc1cccc2nc3n(c12)C(=O)c1ccccc1-3 | > 100 µM | > 100 µM | > 100 µM | > 100 µM | > 100 µM | – | – | – | – | – | – | – | – | – | – | – | –
17 | Cc1ccc(S(=O)(=O)NC(=O)C2(Br)S(=O)(=O)OCCOS2(=O)=O)cc1 | > 100 µM | > 100 µM | > 100 µM | > 100 µM | > 100 µM | > 100 µM | > 100 µM | > 100 µM | > 100 µM | > 100 µM | – | > 100 µM | > 100 µM | – | – | > 100 µM | –
18 | OCCOCCN1CCN(c2nc(N3CCCC3)c3nc(Cl)c(NCc4ccccc4)nc3n2)CC1 | 31.9 µM | 29.2 µM | 28.4 µM | 15 µM | 29.4 µM | – | – | – | – | – | – | – | – | – | – | – | –
